Test results as given in ChEMBL document CHEMBL1132938, “Novel synthetic oleanane and ursane triterpenoids with various enone functionalities in ring A as inhibitors of nitric oxide production in mouse macrophages” (J Med Chem, 2000).

Organism: Mus musculus
Experiment: Percent inhibition of nitric oxide production induced by IFN-uM concentration
Assay type: functional
Set-up: concentration or dose not given beside the values

Row | SMILES | Inhibition [%]
1 | CC1(C)CCC2(C(=O)O)CC[C@]3(C)C(=CC[C@@H]4[C@@]5(C)CC[C@@H](Cl)C(C)(C)[C@@H]5CC[C@]43C)C2C1 (stereo partly drawn) | 0
2 | CC(=O)OC[C@]12CCC(C)(C)CC1C(O)[C@](C)([C@]1(C)CC[C@H]3C(C)(C)[C@@H](OC(C)=O)CC[C@]3(C)[C@H]1CCO)CC2 (stereo partly drawn) | 12
3 | CC(=O)OCC12CCC(C)(C)CC1[C@H]1[C@H](OC(C)=O)C[C@@H]3[C@@]4(C)CC[C@H](OC(C)=O)C(C)(C)[C@@H]4CC[C@@]3(C)[C@]1(C)CC2 (stereo partly drawn) | 0
4 | CC1(C)CC[C@]2(C(=O)O)CC[C@@](C)([C@]3(C)CC[C@H]4C(C)(C)C(=O)CC[C@]4(C)[C@H]3CC(=O)O)C(=O)C2C1 (stereo partly drawn) | 28
5 | CC(=O)OCC12CCC(C)(C)CC1C1=CC[C@@H]3[C@@]4(C)CC[C@H](OC(C)=O)C(C)(C)[C@@H]4CC[C@@]3(C)[C@]1(C)CC2 (stereo partly drawn) | 4
6 | COC(=O)C12CCC(C)(C)CC1C1=CC[C@@H]3[C@@]4(C)CC[C@H](OC(C)=O)C(C)(C)[C@@H]4CC[C@@]3(C)[C@]1(C)CC2 (stereo partly drawn) | 10
7 | CC1(C)CCC2(CO)CC[C@]3(C)C(=CC[C@@H]4[C@@]5(C)CC[C@H](O)C(C)(C)[C@@H]5CC[C@]43C)C2C1 (stereo partly drawn) | 0
8 | COC(=O)C12CCC(C)(C)CC1C1=CC[C@@H]3[C@@]4(C)CCC(=O)C(C)(C)[C@@H]4CC[C@@]3(C)[C@]1(C)CC2 (stereo partly drawn) | 24
9 | CC1(C)CCC2(CO)CC[C@]3(C)[C@@H](C2C1)[C@H](O)C[C@@H]1[C@@]2(C)CC[C@H](O)C(C)(C)[C@@H]2CC[C@]13C (stereo partly drawn) | 20
10 | CC1(C)CCC2(CO)CC[C@]3(C)[C@@H](C2C1)[C@@H](O)C[C@@H]1[C@@]2(C)CC[C@H](O)C(C)(C)[C@@H]2CC[C@]13C (stereo partly drawn) | 48
11 | C=C(C)[C@@H]1CC[C@]2(C)[C@H](CC=C3C4[C@@H](C)[C@H](C)CC[C@]4(C(=O)O)CC[C@]32C)[C@@]1(C)CCC#N (stereo partly drawn) | 39
12 | COC(=O)C12CC[C@@H](C)[C@H](C)C1C1=CC[C@@H]3[C@@]4(C)CCC(=O)C(C)(C)[C@@H]4CC[C@@]3(C)[C@]1(C)CC2 (stereo partly drawn) | 16
13 | COC(=O)C12CCC(C)(C)CC1C1=CC[C@@H]3[C@@]4(C)CCC(=O)NC(C)(C)[C@@H]4CC[C@@]3(C)[C@]1(C)CC2 (stereo partly drawn) | 0
14 | COC(=O)C12CCC(C)(C)CC1[C@H]1C(=O)C[C@@H]3[C@@]4(C)CCC(=O)C(C)(C)[C@@H]4CC[C@@]3(C)[C@]1(C)CC2 (stereo partly drawn) | 3
15 | C[C@@H]1CC[C@]2(C(=O)O)CC[C@]3(C)C(=CC[C@@H]4[C@@]5(C)C[C@@H](Cl)C(=O)C(C)(C)[C@@H]5CC[C@]43C)C2[C@H]1C (stereo partly drawn) | 55
16 | C[C@@H]1CCC2(C(=O)O)CC[C@]3(C)C(=CC[C@@H]4[C@@]5(C)CC[C@@H](O)C(C)(C)[C@@H]5CC[C@]43C)C2[C@H]1C (stereo partly drawn) | 48
17 | CC1(C)CC[C@@]23CC[C@]4(C)[C@](OC2=O)(C(=O)C[C@@H]2[C@@]5(C)CCC(=O)C(C)(C)[C@@H]5CC[C@]24C)C3C1 (stereo partly drawn) | 0
18 | COC(=O)C12CCC(C)(C)CC1C1=CC[C@@H]3[C@@]4(C)CC=CC(C)(C)[C@@H]4CC[C@@]3(C)[C@]1(C)CC2 (stereo partly drawn) | 3
19 | CC1(C)CC[C@@]23CC[C@]4(C)[C@@](OC2O)(C3C1)[C@@H](O)C[C@@H]1[C@@]2(C)CC[C@H](O)C(C)(C)[C@@H]2CC[C@]14C (stereo partly drawn) | 21
20 | COC(=O)C12CCC(C)(C)CC1[C@H]1C(=O)C[C@@H]3[C@@]4(C)CC[C@H](O)C(C)(C)[C@@H]4CC[C@@]3(C)[C@]1(C)CC2 (stereo partly drawn) | 0
21 | C[C@@H]1CCC2(C(=O)O)CC[C@]3(C)C(=CC[C@@H]4[C@@]5(C)CCC(=O)C(C)(C)[C@@H]5CC[C@]43C)C2[C@H]1C (stereo partly drawn) | 22
22 | CC1(C)CC[C@]2(C(=O)O)CC[C@]3(C)C(=CC[C@@H]4[C@@]5(C)C=CC(=O)C(C)(C)[C@@H]5CC[C@]43C)C2C1 (stereo partly drawn) | 85
23 | CC(=O)OC[C@]12CCC(C)(C)CC1C(=O)[C@](C)([C@]1(C)CC[C@H]3C(C)(C)[C@@H](OC(C)=O)CC[C@]3(C)[C@H]1CC(=O)O)CC2 (stereo partly drawn) | 52
24 | CC1(C)CC[C@@]23CC[C@]4(C)[C@@](OC2=O)(C3C1)[C@@H](Br)C[C@@H]1[C@@]2(C)CCC(=O)C(C)(C)[C@@H]2CC[C@]14C (stereo partly drawn) | 4
25 | CC(=O)OCC12CCC(C)(C)CC1[C@H]1[C@@H](O)C[C@@H]3[C@@]4(C)CC[C@H](OC(C)=O)C(C)(C)[C@@H]4CC[C@@]3(C)[C@]1(C)CC2 (stereo partly drawn) | 0
26 | C=C(C)[C@@H]1CC[C@]2(C)[C@H](CC=C3C4CC(C)(C)CC[C@]4(C(=O)O)CC[C@]32C)[C@@]1(C)CCC=O (stereo partly drawn) | 22
27 | C=C(C)[C@@H]1CC[C@]2(C)[C@H](CC=C3C4CC(C)(C)CC[C@]4(C(=O)O)CC[C@]32C)[C@@]1(C)CCC#N (stereo partly drawn) | 33
28 | C=C(C)[C@@H]1CC[C@]2(C)[C@H](CC=C3C4[C@@H](C)[C@H](C)CC[C@]4(C(=O)O)CC[C@]32C)[C@@]1(C)CCC(=O)O (stereo partly drawn) | 10
